Data reported in patent US20230203059A1, “MACROCYCLIC JAK INHIBITOR AND USES THEREOF” (Biopolar Hongye (Guangdong) Pharmaceutical Co. Ltd., priority 2020, published 2023).

Columns and labels:
Format in all cases: biochemical
[1] = biological target: TYK2 (Homo sapiens, UniProt P29597); experiment: JAK kinase activity, homogeneous time-resolved fluorescence (TYK2 reaction system); conditions: ATP 2 μM, TYK2 protein 0.2 ng/μL; read-out: TYK 2 activity
In short: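 Activity read as the 665 nm/615 nm ratio after adding EDTA-containing detection mix with anti-phospho-substrate antibody and XL-615. Beforehand, 0.2 ng/μL TYK2, 2 μM ATP, substrate and compound reacted 1 h in pH 7.0 Hepes buffer with MgCl2 and DTT. IC50 fitted with Hill-slope equation.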

[2] = biological target: T1, JAK3 (Homo sapiens, UniProt P52333); experiment: JAK kinase activity, homogeneous time-resolved fluorescence (JAK3 reaction system); conditions: ATP 2 μM, JAK3 protein 0.04 ng/μL; read-out: JAK 3 activity
T1 sequence (P52333 1-1124): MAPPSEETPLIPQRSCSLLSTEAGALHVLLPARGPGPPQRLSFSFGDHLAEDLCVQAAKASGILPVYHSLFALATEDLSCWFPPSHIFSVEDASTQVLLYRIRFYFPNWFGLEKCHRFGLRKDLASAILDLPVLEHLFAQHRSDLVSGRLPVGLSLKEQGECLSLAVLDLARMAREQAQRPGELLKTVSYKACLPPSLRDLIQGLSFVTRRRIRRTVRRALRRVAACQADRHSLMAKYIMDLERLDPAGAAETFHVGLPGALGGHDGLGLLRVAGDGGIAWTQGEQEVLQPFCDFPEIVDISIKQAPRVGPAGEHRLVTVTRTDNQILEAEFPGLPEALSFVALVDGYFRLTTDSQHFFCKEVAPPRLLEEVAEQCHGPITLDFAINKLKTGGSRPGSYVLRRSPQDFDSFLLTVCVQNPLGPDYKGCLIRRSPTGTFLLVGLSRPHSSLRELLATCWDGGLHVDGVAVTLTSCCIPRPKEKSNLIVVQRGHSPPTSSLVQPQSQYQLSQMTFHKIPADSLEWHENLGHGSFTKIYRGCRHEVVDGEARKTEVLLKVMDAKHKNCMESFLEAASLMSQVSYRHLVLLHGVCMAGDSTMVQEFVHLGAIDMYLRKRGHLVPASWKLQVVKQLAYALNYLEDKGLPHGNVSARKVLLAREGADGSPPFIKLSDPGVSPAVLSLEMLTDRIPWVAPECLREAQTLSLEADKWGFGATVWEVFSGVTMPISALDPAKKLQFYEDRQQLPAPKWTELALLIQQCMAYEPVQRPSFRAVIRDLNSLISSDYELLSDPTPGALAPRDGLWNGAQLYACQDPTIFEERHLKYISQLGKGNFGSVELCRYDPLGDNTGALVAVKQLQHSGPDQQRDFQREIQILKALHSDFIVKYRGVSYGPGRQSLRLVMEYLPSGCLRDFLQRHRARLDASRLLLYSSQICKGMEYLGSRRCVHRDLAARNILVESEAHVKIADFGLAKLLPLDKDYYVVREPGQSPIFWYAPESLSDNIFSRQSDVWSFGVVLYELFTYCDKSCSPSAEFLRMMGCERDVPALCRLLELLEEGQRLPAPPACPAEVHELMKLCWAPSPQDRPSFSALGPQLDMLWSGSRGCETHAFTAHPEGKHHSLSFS

[3] = biological target: JAK2 (Homo sapiens, UniProt O60674); experiment: JAK kinase activity, homogeneous time-resolved fluorescence (JAK2 reaction system); conditions: ATP 2 μM, JAK2 protein 0.01 ng/μL
In short: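 IC50 derived by Hill-equation fit of the 665/615 nm time-resolved fluorescence ratio after EDTA-containing detection mix with anti-phosphosubstrate antibody. Preceding 1 h reaction contained 2 μM ATP, 0.01 ng/μL JAK2, substrate, 50 mM Hepes pH 7.0, 5 mM MgCl2, 1 mM DTT.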

[4] = biological target: JAK1 (Homo sapiens, UniProt P23458); experiment: JAK kinase activity, homogeneous time-resolved fluorescence (JAK1 reaction system); conditions: ATP 2 μM, JAK1 protein 0.2 ng/μL; read-out: JAK 1 activity
In short: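 Kinase activity read as the 665 nm/615 nm time-resolved fluorescence ratio (320 nm excitation) after EDTA-containing antibody and XL-615 addition. Reaction ran 1 h at pH 7.0 (Hepes, MgCl2, DTT) with 0.2 ng/μL JAK1 and ATP at 2 μM. IC50 derived by Hill-slope fit.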

Chain of TYK2 (P29597 whole entry): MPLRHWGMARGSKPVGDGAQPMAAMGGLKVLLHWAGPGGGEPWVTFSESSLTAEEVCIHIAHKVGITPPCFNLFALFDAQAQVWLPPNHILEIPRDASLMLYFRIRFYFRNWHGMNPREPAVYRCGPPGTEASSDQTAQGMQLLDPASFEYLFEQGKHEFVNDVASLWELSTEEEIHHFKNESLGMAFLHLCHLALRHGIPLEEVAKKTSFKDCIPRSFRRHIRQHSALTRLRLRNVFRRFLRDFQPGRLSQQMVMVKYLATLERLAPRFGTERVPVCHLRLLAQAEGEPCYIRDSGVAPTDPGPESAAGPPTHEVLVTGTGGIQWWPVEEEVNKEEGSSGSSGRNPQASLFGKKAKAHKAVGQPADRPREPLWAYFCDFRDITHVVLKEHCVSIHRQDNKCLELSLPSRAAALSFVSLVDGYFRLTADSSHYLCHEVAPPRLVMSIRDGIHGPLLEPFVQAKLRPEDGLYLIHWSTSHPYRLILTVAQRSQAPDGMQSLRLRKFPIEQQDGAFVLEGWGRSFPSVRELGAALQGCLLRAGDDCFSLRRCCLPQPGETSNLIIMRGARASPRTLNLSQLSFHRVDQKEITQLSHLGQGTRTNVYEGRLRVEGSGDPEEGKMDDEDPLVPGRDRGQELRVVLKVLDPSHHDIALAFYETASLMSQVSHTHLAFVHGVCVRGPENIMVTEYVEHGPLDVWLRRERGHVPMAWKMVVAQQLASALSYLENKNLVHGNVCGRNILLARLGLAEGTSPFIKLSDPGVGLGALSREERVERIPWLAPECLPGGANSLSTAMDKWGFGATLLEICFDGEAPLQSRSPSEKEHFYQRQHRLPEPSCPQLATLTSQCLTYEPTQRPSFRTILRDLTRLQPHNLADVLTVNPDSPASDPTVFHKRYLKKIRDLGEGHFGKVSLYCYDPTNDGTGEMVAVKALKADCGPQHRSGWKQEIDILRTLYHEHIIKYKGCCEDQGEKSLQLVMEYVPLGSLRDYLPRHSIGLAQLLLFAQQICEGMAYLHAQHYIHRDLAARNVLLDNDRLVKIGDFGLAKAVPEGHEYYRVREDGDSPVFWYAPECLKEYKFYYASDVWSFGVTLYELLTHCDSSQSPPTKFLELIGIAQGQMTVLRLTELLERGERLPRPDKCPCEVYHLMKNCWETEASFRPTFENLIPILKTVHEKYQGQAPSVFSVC
Chain of JAK2 (O60674 whole entry): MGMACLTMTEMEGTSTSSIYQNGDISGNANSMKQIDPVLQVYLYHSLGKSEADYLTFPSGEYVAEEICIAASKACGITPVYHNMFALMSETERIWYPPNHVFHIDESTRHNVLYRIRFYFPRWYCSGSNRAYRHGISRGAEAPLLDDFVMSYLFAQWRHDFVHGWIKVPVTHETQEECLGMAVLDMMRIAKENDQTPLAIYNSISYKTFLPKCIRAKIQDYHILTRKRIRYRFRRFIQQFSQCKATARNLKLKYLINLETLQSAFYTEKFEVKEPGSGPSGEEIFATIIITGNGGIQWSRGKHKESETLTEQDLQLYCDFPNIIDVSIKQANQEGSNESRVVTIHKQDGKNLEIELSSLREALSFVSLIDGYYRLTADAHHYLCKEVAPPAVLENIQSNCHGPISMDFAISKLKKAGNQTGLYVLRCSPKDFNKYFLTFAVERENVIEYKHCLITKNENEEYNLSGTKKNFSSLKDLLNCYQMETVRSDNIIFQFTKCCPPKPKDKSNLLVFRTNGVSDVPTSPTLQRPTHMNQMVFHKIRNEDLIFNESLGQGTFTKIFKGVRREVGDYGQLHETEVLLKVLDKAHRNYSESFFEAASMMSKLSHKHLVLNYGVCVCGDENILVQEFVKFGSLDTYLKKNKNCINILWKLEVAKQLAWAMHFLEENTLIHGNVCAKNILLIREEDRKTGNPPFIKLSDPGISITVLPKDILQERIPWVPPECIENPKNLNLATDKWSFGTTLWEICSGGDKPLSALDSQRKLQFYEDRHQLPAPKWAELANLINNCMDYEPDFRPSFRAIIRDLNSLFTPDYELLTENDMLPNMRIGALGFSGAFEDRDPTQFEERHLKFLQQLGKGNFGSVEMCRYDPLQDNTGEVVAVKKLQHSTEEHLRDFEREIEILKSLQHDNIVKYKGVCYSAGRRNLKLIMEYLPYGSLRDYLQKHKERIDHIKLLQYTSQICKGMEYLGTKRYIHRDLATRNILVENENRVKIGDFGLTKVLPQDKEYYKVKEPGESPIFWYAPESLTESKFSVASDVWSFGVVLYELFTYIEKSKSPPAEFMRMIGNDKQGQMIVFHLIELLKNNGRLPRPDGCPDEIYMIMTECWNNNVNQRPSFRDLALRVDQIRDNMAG
Chain of JAK1 (P23458 whole entry): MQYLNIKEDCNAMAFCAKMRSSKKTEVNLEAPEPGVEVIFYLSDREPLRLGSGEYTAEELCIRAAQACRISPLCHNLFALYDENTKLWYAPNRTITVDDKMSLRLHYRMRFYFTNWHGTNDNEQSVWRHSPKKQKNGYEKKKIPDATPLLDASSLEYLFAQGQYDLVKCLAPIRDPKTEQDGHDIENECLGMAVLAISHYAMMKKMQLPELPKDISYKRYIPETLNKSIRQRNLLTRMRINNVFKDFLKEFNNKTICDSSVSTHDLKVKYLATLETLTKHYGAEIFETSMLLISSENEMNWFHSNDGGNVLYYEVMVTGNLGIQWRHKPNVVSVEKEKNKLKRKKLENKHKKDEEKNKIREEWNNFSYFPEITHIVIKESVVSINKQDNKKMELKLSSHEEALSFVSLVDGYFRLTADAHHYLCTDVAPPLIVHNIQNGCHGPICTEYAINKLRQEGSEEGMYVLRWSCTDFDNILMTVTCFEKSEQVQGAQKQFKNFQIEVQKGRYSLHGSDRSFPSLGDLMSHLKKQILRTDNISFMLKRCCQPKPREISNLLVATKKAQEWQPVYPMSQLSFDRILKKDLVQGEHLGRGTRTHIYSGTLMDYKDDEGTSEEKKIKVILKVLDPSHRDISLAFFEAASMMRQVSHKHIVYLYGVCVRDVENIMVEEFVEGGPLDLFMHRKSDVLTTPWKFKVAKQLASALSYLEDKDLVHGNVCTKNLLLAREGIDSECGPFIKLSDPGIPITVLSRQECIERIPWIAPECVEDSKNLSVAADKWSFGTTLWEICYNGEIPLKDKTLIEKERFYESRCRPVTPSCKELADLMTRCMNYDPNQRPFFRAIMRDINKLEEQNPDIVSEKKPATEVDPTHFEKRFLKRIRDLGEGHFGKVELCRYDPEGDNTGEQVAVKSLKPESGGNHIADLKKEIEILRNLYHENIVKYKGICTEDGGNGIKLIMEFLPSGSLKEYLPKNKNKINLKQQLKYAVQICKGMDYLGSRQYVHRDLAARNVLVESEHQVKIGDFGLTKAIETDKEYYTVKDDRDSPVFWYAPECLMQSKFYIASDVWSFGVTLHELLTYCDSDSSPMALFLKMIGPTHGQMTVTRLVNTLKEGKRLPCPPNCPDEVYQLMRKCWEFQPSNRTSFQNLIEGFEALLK

Which IC50 [1] does the source give for `Nc1cc2ccc1-c1ccnc(n1)Nc1ccc(OCC3CC(F)(F)C3)c(c1)COc1ccc(cc1)NC2=O` [Example 210, 1^2-amino-4^4-((3,3-difluorocyclobutyl)methoxy)-6-oxa-3,8-diaza-2(4,2)-pyrimidina-1,7(1,4),4(1,3)-tribenz-enacyclononaphane-9-one] here?
The IC50 was > 10000 nM.

What about the IC50 [2] of the same molecule?
The IC50 was 11 to 100 nM.

What about the IC50 [3] of the same molecule?
Its IC50 is > 10000 nM.

And the IC50 [4]?
The IC50 was > 10000 nM.

What does the source list for `CC(C)Oc1ccc2cc1COCCCCNC(=O)c1ccc(c(N)c1)-c1ccnc(n1)N2` [Example 67, 1^2-amino-4^4-isopropoxy-6-oxa-3,11-diaza-2(4,2)-pyrimidina-1(1,4),4(1,3)-dibenzenacyclododecaphan-12-one]?
IC50 [1]: 1000 to 10000 nM; IC50 [2]: < 10 nM; IC50 [3]: 101 to 1000 nM; IC50 [4]: 101 to 1000 nM

Which results are given for `Nc1cc2ccc1-c1ccnc(n1)Nc1ccc(Oc3cccnc3)c(c1)COc1ccc(cc1)NC2=O` [Example 205, 1^2-amino-4^4-(pyridin-3-oxy)-6-oxa-3,8-diaza-2(4,2)-pyrimidina-1,7(1,4),4(1,3)-tribenzenacyclononaphane-9-one]?
IC50 [1]: > 10000 nM; IC50 [2]: 11 to 100 nM; IC50 [3]: 1000 to 10000 nM; IC50 [4]: 1000 to 10000 nM

For `O=C1NCCCCOCc2cc(ccc2OC2CCCC2)Nc2nccc(n2)-c2ccc1cc2[N+](=O)[O-]` [Example 87, 4^4-cyclopentoxy-1^2-nitro-6-oxa-3,11-diaza-2(4,2)-pyrimidina-1(1,4),4(1,3)-dibenzenacyclododecaphan-12-one], which IC50 [1] is on record?
The IC50 was > 10000 nM.

What about the IC50 [2] of the same molecule?
The IC50 was 101 to 1000 nM.

And the IC50 [3]?
The IC50 was > 10000 nM.

What about the IC50 [4] of the same molecule?
Its IC50 is > 10000 nM.

With `CC1CCNC(=O)c2ccc(c(N)c2)-c2ccnc(n2)Nc2ccc(Oc3cccnc3)c(c2)COC1` (centres unmarked) [Example 130, 1^2-amino-8-methyl-4^4-(pyridin-3-oxy)-6-oxa-3,11-diaza-2(4,2)-pyri-midina-1(1,4),4(1,3)-dibenzenacyclo-dodecaphan-12-one] as the molecule, how does the IC50 [1] read?
Its IC50 is > 10000 nM.

What about the IC50 [2] of the same molecule?
The IC50 was 11 to 100 nM.

What about the IC50 [3] of the same molecule?
Its IC50 is 101 to 1000 nM.

And the IC50 [4]?
The IC50 was 1000 to 10000 nM.

Which results are given for `CC(C)COc1ccc2cc1COCCCCNC(=O)c1ccc(c(N)c1)-c1ccnc(n1)N2` [Example 116, 1^2-amino-4^4-isobutoxy-6-oxa-3,11-diaza-2(4,2)-pyrimidina-1(1,4),4(1,3)-dibenzenacyclododecaphan-12-one]?
IC50 [1]: 1000 to 10000 nM; IC50 [2]: < 10 nM; IC50 [3]: 101 to 1000 nM; IC50 [4]: 101 to 1000 nM

For `COc1cc2ccc1-c1ccnc(n1)Nc1ccc(N3CCOCC3)c(c1)COCCCCNC2=O` [Example 21, 1^2-methoxy-4^4-morpholin-6-oxa-3,11-diaza-2(4,2)-pyrimidina-1(1,4),4(1,3)-dibenzenacyclododecaphan-12-one], which IC50 [1] is on record?
The IC50 was 1000 to 10000 nM.

And the IC50 [2]?
The IC50 was 101 to 1000 nM.

And the IC50 [3]?
The IC50 was 101 to 1000 nM.

What about the IC50 [4] of the same molecule?
Its IC50 is 1000 to 10000 nM.

`O=C1NCCCCOCc2cc(ccc2N2CCOCC2)Nc2nccc(n2)-c2ccc1cc2I` [Example 41, 1^2-iodine-4^4-morpholin-6-oxa-3,11-diaza-2(4,2)-pyrimidina-1(1,4),4(1,3)-dibenzenacyclododephan-12-one] was tested. Which IC50 [1] did it give?
The IC50 was 1000 to 10000 nM.

And the IC50 [2]?
The IC50 was 101 to 1000 nM.

What about the IC50 [3] of the same molecule?
Its IC50 is 101 to 1000 nM.

And the IC50 [4]?
Its IC50 is 1000 to 10000 nM.

What does the source list for `O=C1NCCCCCOCc2cc(ccc2N2CCOCC2)Nc2nccc(n2)-c2ccc1cc2[N+](=O)[O-]` [Example 49, 1^2-nitro-4^4-morpholin-6-oxa-3,12-di-aza-2(4,2)-pyrimidina-1(1,4),4(1,3)-dibenzenacyclotridecaphan-13-one]?
IC50 [1]: 1000 to 10000 nM; IC50 [2]: 1000 to 10000 nM; IC50 [3]: 101 to 1000 nM; IC50 [4]: 1000 to 10000 nM

Which results are given for `CC1CCNC(=O)c2ccc(c(N)c2)-c2ccnc(n2)Nc2ccc(OC3CC3)c(c2)COC1` (centres unmarked) [Example 95, 1^2-amino-4^4-cyclopropoxy-8-methyl-6-oxa-3, 11-diaza-2 (4,2)-pyrimidina-1(1,4),4(1,3)-dibenzenacyclododecaphan-12-one]?
IC50 [1]: 1000 to 10000 nM; IC50 [2]: < 10 nM; IC50 [3]: 11 to 100 nM; IC50 [4]: 1000 to 10000 nM

With `Cc1ccc2cc1COCCCCNC(=O)c1ccc(c(F)c1)-c1ccnc(n1)N2` [Example 38, 1^2-fluoro-4^4-methyl-6-oxa-3,11-diaza-2(4,2)-pyrimidina-1(1,4),4(1,3)-di-benzenacyclododecaphan-12-one] as the molecule, how does the IC50 [1] read?
Its IC50 is 1000 to 10000 nM.

What about the IC50 [2] of the same molecule?
Its IC50 is 101 to 1000 nM.

What about the IC50 [3] of the same molecule?
The IC50 was 101 to 1000 nM.

And the IC50 [4]?
The IC50 was 101 to 1000 nM.
